One experiment addresses T1, BRD4-BD2 (Homo sapiens, UniProt O60885).
T1 construct: made in house; host or cells: T7 phage grown in an E. coli host derived from the BL21 strain
Description: Binding affinity to BRD4-BD2 (bromoKdELECT assay). The settings on record: 11-point 3-fold dilution series.

Experiment [1] relates to T-Rex 293 cell line SC3 cells having increased expression of androgen receptor protein due to exposure to doxycycline. Briefly: Cellular growth inhibition, T-Rex 293 SC3 cells with doxycycline (increased androgen receptor expression), CellTiter-Glo. Format: cell-based. The note with it: T-Rex 293 SC3 cells with 10 ng/mL doxycycline (increased androgen receptor expression), 72 hours, CellTiter-Glo 2.0. The procedure, abridged: (§1)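 Growth inhibition is measured in an inducible AR-expressing T-Rex 293 clone, SC3, cultured with or without 10 ng/mL doxycycline in hormone-depleted medium. Test compounds are applied for 72 hours. GI50 values derive from CellTiter-Glo 2.0 signal fitted by four-parameter regression.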
(ATP-based viability assays read luminescence as a measure of living cells.)

Experiment [2] relates to T-Rex 293 cell line SC3 cells lacking increased expression of androgen receptor protein. Description: Cellular growth inhibition, T-Rex 293 SC3 cells without doxycycline (no increased androgen receptor expression), CellTiter-Glo. Format: cell-based. The settings on record: T-Rex 293 SC3 cells not exposed to doxycycline (no increased androgen receptor expression), 72 hours. The procedure, abridged:
as §1

Bounds are passed on as bounds.

As usually defined, the Kd is the concentration at which binding is half-saturated. In general, GI50 refers to the concentration giving 50% growth inhibition. With `Cn1cc(-c2cc(C(C)(C)O)ccc2Oc2cccc(CCCN3CCN(c4ncc(C(=O)N[C@H]5C(C)(C)[C@H](Oc6ccc(C#N)c(Cl)c6)C5(C)C)cn4)CC3)c2)c2cc[nH]c2c1=O` [Compound I-110], the Kd at BRD4-BD2 is under 50 nM. In addition, the GI50 in experiment [1] and in experiment [2] was under 500 nM in each case.
In turn, `CCS(=O)(=O)Nc1ccc(Oc2cccc(OCCOC3CCN(c4ncc(C(=O)N[C@H]5C(C)(C)[C@H](Oc6ccc(C#N)c(Cl)c6)C5(C)C)cn4)CC3)c2)c(-c2cn(C)c(=O)c3c2ccn3C)c1` [Compound I-121] gave a dissociation constant Kd at BRD4-BD2 of over 2500 nM. Also, the GI50 in experiment [1] was under 500 nM; in experiment [2], over 3000 nM.
As for `CCS(=O)(=O)Nc1ccc(Oc2cccc(N3CCN(C4CN(c5ncc(C(=O)N[C@H]6C(C)(C)[C@H](Oc7ccc(C#N)c(Cl)c7)C6(C)C)cn5)C4)CC3)c2)c(-c2cn(C)c(=O)c3[nH]ccc23)c1` [Compound I-126], the Kd at BRD4-BD2 was under 50 nM. In addition, the GI50 in experiment [1] is under 500 nM; in experiment [2] it was over 3000 nM.
The corresponding values for `Cn1cc(-c2ccccc2Oc2cccc(OCCOC3CCN(c4ncc(C(=O)N[C@H]5C(C)(C)[C@H](Oc6ccc(C#N)c(Cl)c6)C5(C)C)cn4)CC3)c2)c2ccn(C)c2c1=O` [Compound I-137] are over 2500 nM, under 500 nM and under 500 nM.
`CCS(=O)(=O)Nc1ccc(Oc2ccc(OCC3CCN(c4ncc(C(=O)N[C@H]5C(C)(C)[C@H](Oc6ccc(C#N)c(Cl)c6)C5(C)C)cn4)CC3)cc2)c(-c2cn(C)c(=O)c3[nH]ccc23)c1` [Compound I-138] displayed a Kd on BRD4-BD2 of 500 to 2500 nM. In addition, the GI50 in experiment [1] and in experiment [2] was under 500 nM throughout.
For the molecule `Cn1cc(-c2cc(C(C)(C)O)ccc2Oc2cccc(OCCC3CCN(c4ncc(C(=O)N[C@H]5C(C)(C)[C@H](Oc6ccc(C#N)c(Cl)c6)C5(C)C)cn4)CC3)c2F)c2cc[nH]c2c1=O` [Compound I-142], at BRD4-BD2, the Kd is 500 to 2500 nM. Further, the values for the GI50 in experiment [1] and in experiment [2] were under 500 nM and 1500 to 3000 nM, respectively.
The corresponding values for `Cn1cc(-c2cc(C(C)(C)O)ccc2Oc2cccc(CCCN3CCN(c4ncc(C(=O)N[C@H]5C(C)(C)[C@H](Oc6ccc(C#N)c(Cl)c6)C5(C)C)cn4)CC3)c2F)c2cc[nH]c2c1=O` [Compound I-143] are under 50 nM, under 500 nM and under 500 nM.
The corresponding values for `Cn1cc(-c2cc(C(C)(C)O)ccc2Oc2cccc(CCOC3CCN(c4ncc(C(=O)N[C@H]5C(C)(C)[C@H](Oc6ccc(C#N)c(Cl)c6)C5(C)C)cn4)CC3)c2F)c2cc[nH]c2c1=O` [Compound I-147] are under 50 nM, under 500 nM and under 500 nM.
The corresponding values for `Cn1cc(-c2cc(C(C)(C)O)ccc2Oc2cccc(OCCC3CCN(c4ncc(C(=O)N[C@H]5C(C)(C)[C@H](Oc6ccc(C#N)c(Cl)c6)C5(C)C)cn4)CC3)c2)c2cc[nH]c2c1=O` [Compound I-156] are 50 to 500 nM, under 500 nM and over 3000 nM.
Molecule `CCS(=O)(=O)c1ccc(Oc2cccc(OCCOC3CCN(c4ccc(C(=O)N[C@H]5C(C)(C)[C@H](Oc6ccc(C#N)c(Cl)c6)C5(C)C)cn4)CC3)c2F)c(-c2cn(C)c(=O)c3[nH]ccc23)c1` [Compound I-185] had a dissociation constant (Kd) at BRD4-BD2 of under 50 nM. Also, the GI50 in experiment [1] and in experiment [2] was under 500 nM throughout.
Molecule `Cn1cc(-c2cc(C(C)(C)O)ccc2Oc2cccc(N3CC(OC4CCN(c5ncc(C(=O)N[C@H]6C(C)(C)[C@H](Oc7ccc(C#N)c(Cl)c7)C6(C)C)cn5)CC4)C3)c2F)c2cc[nH]c2c1=O` [Compound I-190] showed a Kd at BRD4-BD2 of 50 to 500 nM. Also, the results for the GI50 in experiment [1] and in experiment [2] were under 500 nM and 500 to 1500 nM, respectively.
`Cc1ccc(CCCOC2CCN(c3ncc(C(=O)N[C@H]4C(C)(C)[C@H](Oc5ccc(C#N)c(Cl)c5)C4(C)C)cn3)CC2)cc1Oc1ccc(C(C)(C)O)cc1-c1cn(C)c(=O)c2[nH]ccc12` [Compound I-192] returned an equilibrium dissociation constant (Kd) at BRD4-BD2 of 50 to 500 nM. Also, the GI50 in experiment [1] was under 500 nM; in experiment [2], 500 to 1500 nM.
The corresponding values for `Cn1cc(-c2cc(C(C)(C)O)ccc2Oc2cccc(CCOC3CCN(c4ncc(C(=O)N[C@H]5C(C)(C)[C@H](Oc6ccc(C#N)c(Cl)c6)C5(C)C)cn4)CC3)c2)c2cc[nH]c2c1=O` [Compound I-193] are under 50 nM, under 500 nM and under 500 nM.
The corresponding values for `Cn1cc(-c2cc(C(C)(C)O)ccc2Oc2ccc(CCOC3CCN(c4ncc(C(=O)N[C@H]5C(C)(C)[C@H](Oc6ccc(C#N)c(Cl)c6)C5(C)C)cn4)CC3)cc2)c2cc[nH]c2c1=O` [Compound I-194] are under 50 nM, under 500 nM and 1500 to 3000 nM.
The molecule `Cc1ccc(CCCOC2CCN(c3ncc(C(=O)N[C@H]4C(C)(C)[C@H](Oc5ccc(C#N)c(Cl)c5)C4(C)C)cn3)CC2)c(C)c1Oc1ccc(C(C)(C)O)cc1-c1cn(C)c(=O)c2[nH]ccc12` [Compound I-195] showed a Kd on BRD4-BD2 of over 2500 nM. In addition, the GI50 in experiment [1] is under 500 nM; in experiment [2] it was over 3000 nM.
For the molecule `Cn1cc(-c2cc(C(C)(C)O)ccc2Oc2cccc(N3CC(CC4CCN(c5ncc(C(=O)N[C@H]6C(C)(C)[C@H](Oc7ccc(C#N)c(Cl)c7)C6(C)C)cn5)CC4)C3)c2F)c2cc[nH]c2c1=O` [Compound I-196], the Kd at BRD4-BD2 is under 50 nM. Besides, the GI50 in experiment [1] was under 500 nM; in experiment [2], over 3000 nM.
As to `CN(c1ccc(Oc2ccc(C(C)(C)O)cc2-c2cn(C)c(=O)c3[nH]ccc23)cc1)C1CCN(c2ncc(C(=O)N[C@H]3C(C)(C)[C@H](Oc4ccc(C#N)c(Cl)c4)C3(C)C)cn2)CC1` [Compound I-197], the Kd at BRD4-BD2 is under 50 nM. In addition, the GI50 in experiment [1] and in experiment [2] was under 500 nM throughout.
Molecule `Cn1cc(-c2cc(C(C)(C)O)ccc2Oc2ccc(CCC3CCN(c4ncc(C(=O)N[C@H]5C(C)(C)[C@H](Oc6ccc(C#N)c(Cl)c6)C5(C)C)cn4)CC3)cc2)c2cc[nH]c2c1=O` [Compound I-203] came in with a Kd at BRD4-BD2 of over 2500 nM. The results for the GI50 in experiment [1] and in experiment [2] were under 500 nM and over 3000 nM, respectively.
On BRD4-BD2, `CN(CCCc1ccc(Oc2ccc(C(C)(C)O)cc2-c2cn(C)c(=O)c3[nH]ccc23)cc1)c1ncc(C(=O)N[C@H]2C(C)(C)[C@H](Oc3ccc(C#N)c(Cl)c3)C2(C)C)cn1` [Compound I-211] came in with a Kd of 50 to 500 nM. In addition, the GI50 in experiment [1] and in experiment [2] was under 500 nM in each case.
Molecule `CC(C)N(CC1CCN(c2ncc(C(=O)N[C@H]3C(C)(C)[C@H](Oc4ccc(C#N)c(Cl)c4)C3(C)C)cn2)CC1)[C@H]1C[C@H](Oc2cccc(Oc3ccc(C(C)(C)O)cc3-c3cn(C)c(=O)c4[nH]ccc34)c2F)C1` [Compound I-214] showed a Kd on BRD4-BD2 of under 50 nM. The GI50 in experiment [1] and in experiment [2] was under 500 nM each time.
The molecule `CCS(=O)(=O)c1ccc(OC(CCCCN2CCN(c3ncc(C(=O)NC4C(C)(C)C(Oc5ccc(C#N)c(Cl)c5)C4(C)C)cn3)CC2)C2CC2)c(-c2cn(C)c(=O)c3[nH]ccc23)c1` (stereo not drawn) [Compound I-223, N-[3-(3-chloro-4-cyano-phenoxy)-2,2,4,4-tetramethyl-cyclobutyl]-2-[4-[5-cyclopropyl-5-[4-ethylsulfonyl-2-(6-methyl-7-oxo-1H-pyrrolo[2,3-c]pyridin-4-yl)phenoxy]pentyl]piperazin-1-yl]pyrimidine-5-carboxamide] yielded a dissociation constant Kd on BRD4-BD2 of under 50 nM. Further, the GI50 in experiment [1] and in experiment [2] was under 500 nM throughout.
Take `Cn1cc(-c2cc(C(C)(C)O)ccc2Oc2ccc(N3CC(CN4CC5CC4CN5c4ncc(C(=O)N[C@H]5C(C)(C)[C@H](Oc6ccc(C#N)c(Cl)c6)C5(C)C)cn4)C3)cc2)c2cc[nH]c2c1=O` (stereo partly drawn) [Compound I-228]: the equilibrium dissociation constant (Kd) at BRD4-BD2 was under 50 nM. In addition, the GI50 in experiment [1] and in experiment [2] was under 500 nM in each case.
In the case of `CCS(=O)(=O)c1ccc(OCC(CCCN2CCN(c3ncc(C(=O)NC4C(C)(C)C(Oc5ccc(C#N)c(Cl)c5)C4(C)C)cn3)CC2)C2CC2)c(-c2cn(C)c(=O)c3[nH]ccc23)c1` (stereo not drawn) [Compound I-231, N-[3-(3-chloro-4-cyano-phenoxy)-2,2,4,4-tetramethyl-cyclobutyl]-2-[4-[4-cyclopropyl-5-[4-ethylsulfonyl-2-(6-methyl-7-oxo-1H-pyrrolo[2,3-c]pyridin-4-yl)phenoxy]pentyl]piperazin-1-yl]pyrimidine-5-carboxamide], at BRD4-BD2, the Kd is under 50 nM. Also, the GI50 in experiment [1] and in experiment [2] was under 500 nM throughout.

The values above are taken from patent publication US20250388605A1, “HETEROBIFUNCTIONAL COMPOUNDS AND METHODS OF TREATING DISEASE” (Halda Therapeutics OpCo, Inc., priority 2022, published 2025).
